Results: patent US20090068286A1, “METHOD OF TREATING CANCER BY ADMINISTRATION OF 5-SUBSTITUTED NUCLEOSIDES” (RESprotect, GmbH, priority 2007, published 2009)
“And” between values parts separate entries of the source, which are not always exact repeats. Identical values can stand only once. Like-named read-outs stand apart in the source and are kept apart here.

Test: Plasma concentrations of BVDU, BVU and GEM in patients of the dose finding study (HPLC)
Format: in vivo, human
Conditions: for concentration at 0 hr / concentration at 0 h / concentration at 0.5 hr / concentration at 1 hr / concentration at 1.5 hr / concentration at 2 hr / concentration at 3 hr / concentration at 4 hr / concentration at 4 h / concentration at 5 hr / concentration at 9 hr / concentration at 0.5 h / concentration at 1 h / concentration at 1.5 h / concentration at 2 h / concentration at 3 h / concentration at 5 h / concentration at 9 h: human, plasma, po; for concentration at 0 hr / concentration at 0 h / concentration at 0.5 hr / concentration at 1 hr / concentration at 1.5 hr / concentration at 2 hr / concentration at 3 hr / concentration at 4 hr / concentration at 4 h / concentration at 5 hr / concentration at 9 hr / concentration at 0.5 h / concentration at 1 h / concentration at 1.5 h / concentration at 2 h / concentration at 3 h / concentration at 5 h / concentration at 9 h / BVDU plasma concentration, patient: day 1, oral BVDU
Method: Dose finding study: 22 Patients with advanced pancreatic adenocarcinoma were eligible for treatment in this single arm study. The mean age was 60 years and 73% of patients were males. One patient without progressive disease was excluded from the study for withdrawal of consent after the first cycle. Of the 21 patients left, 15 were in stage IV and 6 in stage III. BVDU was administered in a combination with GEM. On day 1, on day 8 and on day 15 of each 28-day cycle, BVDU was given together with GEM. On days 2-4, on days 8-11, and on days 15-18 of a 28-day cycle, BVDU was given alone in the recovery phase.
The starting dose of BVDU was 4×125 mg/day (total dose of 6,000 mg per treatment cycle) together with a fixed dose of GEM (1,000 mg/M^2). Subsequent total doses of BVDU per cycle were 7,500 mg, 9,000 mg, 10,500 mg, and 12,000 mg again in four patients per cohort. Dosage levels were administered as follows: First dose level: The starting dose of BVDU was 4×125 mg daily given at approximately 08:00 a.m. (1×125 mg BVDU), 12:00 a.m. (1×125 mg BVDU), 04:00 p.m. (1×125 mg BVDU), and 08:00 p.m. (1×125 mg BVDU). These doses were administered on days 1 to 4, days 8 to 11 and days 15 to 18; Second dose level: 1×250 mg+3×125 mg daily; Third dose level. 2×250 mg+2×125 mg daily; Forth dose level: 3×250 mg+1×125 mg daily; and, Fifth dose level: 4×250 mg daily.
Approximately 1 hour after the 08:00 a.m. BVDU-administration on day 1, day 8 and day 15 of a cycle, the GEM infusion started and GEM was infused for 30 minutes.
Analysis of the concentrations of GEM and BVDU (BVDU) as well as analysis of the concentrations of BVU ((E)-5-(2-bromovinyl)uracil, degradation product of BVDU) in plasma samples: 0.5 ml of plasma spiked with about 0.5 μg of 4-Propyl-2-thiouracil (PTU) as internal standard was extracted with 2.5 ml of methanol-acetonitrile (v/v, 1:9) by vigorous mixing for about 1 min. After centrifugation the supernatant was transferred to a beaker and evaporated to dryness at 50° C. under a gentle stream of nitrogen. The residue was dissolved in 1 ml of the solution used as mobile phase by 10 min treatment in an ultrasonic bath. After centrifugation the clear supernatant was used for HPLC-analysis. The concentrations of GEM and BVDU were calculated using a calibration curve with the respective standard substances. The concentrations of BVU were calculated using the calibration curve of BVDU and the determined response factor. Limits of detection: BVDU 20 ng/ml plasma; GEM 30 ng/ml plasma. Limits of quantification: BVDU 60 ng/ml plasma; GEM 100 ng/ml plasma.
Pharmacokinetic Results BVDU: All measurements were performed within 9 hours. Therefore, only the first three intakes of BVDU-tablets were relevant in this context, and as consequence, in dose groups four and five the intake of tablets was identical. When the dose was doubled from 125 mg to 250 mg, the mean maximum BVDU concentration in plasma increased fivefold from 290 (±152) ng/ml to 1549 (±1058) ng/ml (FIG. 10).

[1] = both sexes, dose level 6000 mg, read-out: BVDU plasma concentration, Mean
[2] = both sexes, dose level 6000 mg, read-out: BVDU plasma concentration, Median
[3] = both sexes, dose level 7500 mg, read-out: BVDU plasma concentration, Mean
[4] = both sexes, dose level 10500 mg, read-out: BVDU plasma concentration, Mean
[5] = both sexes, dose level 10500 mg, read-out: BVDU plasma concentration, Median
[6] = both sexes, dose level 12000 mg, read-out: BVDU plasma concentration, Mean
[7] = both sexes, dose level 12000 mg, read-out: BVDU plasma concentration, Median
[8] = dose level 7500 mg, read-out: BVDU plasma concentration, Median
[9] = dose level 9000 mg, read-out: BVDU plasma concentration, Mean
[10] = dose level 9000 mg, read-out: BVDU plasma concentration, Median

O=c1[nH]c(=O)n([C@H]2C[C@H](O)[C@@H](CO)O2)cc1/C=C/Br [BVDU, (E)-5-(2-bromovinyl)-2′-deoxyuridine]
Mean maximum BVDU concentration in plasma (BVDU dose 125 mg): 290 (±152) ng/ml | Mean maximum BVDU concentration in plasma (BVDU dose 250 mg): 1549 (±1058) ng/ml | concentration at 0 hr [1]: 0 ng/mL | concentration at 0 hr [2]: 0 ng/mL | concentration at 0 h (both sexes, dose level 6000 mg, read-out: BVDU plasma concentration, patient): 0 ng/mL | concentration at 0.5 hr [1]: 213 ng/mL | concentration at 0.5 hr [2]: 213 ng/mL | concentration at 1 hr [1]: 177 ng/mL | concentration at 1 hr [2]: 109 ng/mL | concentration at 1.5 hr (both sexes, dose level 6000 mg, 1.5 hr, read-out: BVDU plasma concentration, Mean): 250 ng/mL | concentration at 1.5 hr (both sexes, dose level 6000 mg, 1.5 hr, read-out: BVDU plasma concentration, Median): 226 ng/mL | concentration at 2 hr [1]: 231 ng/mL | concentration at 2 hr [2]: 207 ng/mL | concentration at 3 hr [1]: 175 ng/mL | concentration at 3 hr [2]: 133 ng/mL | concentration at 4 hr (both sexes, dose level 6000 mg, 4.0 hr, read-out: BVDU plasma concentration, Mean): 113 ng/mL | concentration at 4 hr (both sexes, dose level 6000 mg, 4.0 hr, read-out: BVDU plasma concentration, Median): 122 ng/mL | concentration at 4 h (both sexes, dose level 6000 mg, 4.0 hr, read-out: BVDU plasma concentration, patient): 126 ng/mL | concentration at 5 hr [1]: 300 ng/mL | concentration at 5 hr [2]: 334 ng/mL | concentration at 9 hr [1]: 391 ng/mL | concentration at 9 hr [2]: 403 ng/mL | concentration at 0 hr [3]: 0 ng/mL | concentration at 0 hr (both sexes, dose level 7500 mg, read-out: BVDU plasma concentration, patient): 0 ng/mL | concentration at 0.5 hr [3]: 1600 ng/mL | concentration at 1 hr [3]: 872 ng/mL | concentration at 1.5 hr (both sexes, dose level 7500 mg, 1.5 hr, read-out: BVDU plasma concentration, Mean): 555 ng/mL | concentration at 2 hr [3]: 454 ng/mL | concentration at 3 hr [3]: 302 ng/mL | concentration at 4 hr (both sexes, dose level 7500 mg, 4.0 hr, read-out: BVDU plasma concentration, Mean): 243 ng/mL | concentration at 9 hr [3]: 952 ng/mL | concentration at 0 h [4]: 0 ng/mL | concentration at 0 h [5]: 0 ng/mL | concentration at 0 h (both sexes, dose level 10500 mg, read-out: BVDU plasma concentration, patient): 0 ng/mL | concentration at 0.5 h [4]: 1110 ng/mL | concentration at 0.5 h [5]: 1150 ng/mL | concentration at 1 h [4]: 1010 ng/mL | concentration at 1 h [5]: 1010 ng/mL | concentration at 1.5 h (both sexes, dose level 10500 mg, 1.5 hr, read-out: BVDU plasma concentration, Mean): 636 ng/mL | concentration at 1.5 h (both sexes, dose level 10500 mg, 1.5 hr, read-out: BVDU plasma concentration, Median): 566 ng/mL | concentration at 2 h [4]: 697 ng/mL | concentration at 2 h [5]: 669 ng/mL | concentration at 3 h [4]: 453 ng/mL | concentration at 3 h [5]: 279 ng/mL | concentration at 4 h (both sexes, dose level 10500 mg, 4.0 hr, read-out: BVDU plasma concentration, Mean): 206 ng/mL | concentration at 4 h (both sexes, dose level 10500 mg, 4.0 hr, read-out: BVDU plasma concentration, Median): 212 ng/mL | concentration at 5 h [4]: 400 ng/mL | concentration at 5 h [5]: 410 ng/mL | concentration at 9 h [4]: 2070 ng/mL | concentration at 9 h [5]: 1390 ng/mL | concentration at 0 h [6]: 0 ng/mL | concentration at 0 h [7]: 0 ng/mL | concentration at 0 h (both sexes, dose level 12000 mg, read-out: BVDU plasma concentration, patient): 0 ng/mL | concentration at 0.5 h [6]: 1490 ng/mL | concentration at 0.5 h [7]: 672 ng/mL | concentration at 1 h [6]: 1160 ng/mL | concentration at 1 h [7]: 1020 ng/mL | concentration at 1.5 h (both sexes, dose level 12000 mg, 1.5 hr, read-out: BVDU plasma concentration, Mean): 1050 ng/mL | concentration at 1.5 h (both sexes, dose level 12000 mg, 1.5 hr, read-out: BVDU plasma concentration, Median): 844 ng/mL | concentration at 1.5 h (both sexes, dose level 12000 mg, 1.5 hr, read-out: BVDU plasma concentration, patient): 844 ng/mL | concentration at 2 h [6]: 904 ng/mL | concentration at 2 h [7]: 561 ng/mL | concentration at 3 h [6]: 738 ng/mL | concentration at 3 h [7]: 407 ng/mL | concentration at 4 h (both sexes, dose level 12000 mg, 4.0 hr, read-out: BVDU plasma concentration, Mean): 543 ng/mL | concentration at 4 h (both sexes, dose level 12000 mg, 4.0 hr, read-out: BVDU plasma concentration, Median): 440 ng/mL | concentration at 5 h [6]: 2080 ng/mL | concentration at 5 h [7]: 1070 ng/mL | concentration at 9 h [6]: 2340 ng/mL | concentration at 9 h [7]: 1780 ng/mL | Increase of mean maximum BVDU concentration in plasma (dose doubled from 125 mg to 250 mg): fivefold | BVDU plasma concentration, patient (dose level 6000 mg, 4.0 hr): 122 ng/mL and 90 ng/mL | BVDU plasma concentration, patient (dose level 12000 mg, 1.5 hr): 1524 ng/mL and 792 ng/mL | concentration at 0 h [8]: 0 ng/mL | concentration at 0.5 h [8]: 1130 ng/mL | concentration at 1 h [8]: 484 ng/mL | concentration at 1.5 h (dose level 7500 mg, 1.5 hr, read-out: BVDU plasma concentration, Median): 644 ng/mL | concentration at 2 h [8]: 403 ng/mL | concentration at 3 h [8]: 304 ng/mL | concentration at 4 h (dose level 7500 mg, 4.0 hr, read-out: BVDU plasma concentration, Median): 242 ng/mL | concentration at 5 h (dose level 7500 mg, read-out: BVDU plasma concentration, Mean): 641 ng/mL | concentration at 5 h [8]: 776 ng/mL | concentration at 9 h [8]: 898 ng/mL | concentration at 0 h [9]: 0 ng/mL | concentration at 0 h [10]: 0 ng/mL | concentration at 0 h (dose level 9000 mg, read-out: BVDU plasma concentration, patient): 0 ng/mL | concentration at 0.5 h [9]: 942 ng/mL | concentration at 0.5 h [10]: 979 ng/mL | concentration at 1 h [9]: 784 ng/mL | concentration at 1 h [10]: 781 ng/mL | concentration at 1.5 h (dose level 9000 mg, 1.5 hr, read-out: BVDU plasma concentration, Mean): 697 ng/mL | concentration at 1.5 h (dose level 9000 mg, 1.5 hr, read-out: BVDU plasma concentration, Median): 530 ng/mL | concentration at 2 h [9]: 701 ng/mL | concentration at 2 h [10]: 705 ng/mL | concentration at 3 h [9]: 464 ng/mL | concentration at 3 h [10]: 441 ng/mL | concentration at 4 h (dose level 9000 mg, 4.0 hr, read-out: BVDU plasma concentration, Mean): 420 ng/mL | concentration at 4 h (dose level 9000 mg, 4.0 hr, read-out: BVDU plasma concentration, Median): 378 ng/mL | concentration at 5 h [9]: 1300 ng/mL | concentration at 5 h [10]: 1020 ng/mL | concentration at 9 h [9]: 1510 ng/mL | concentration at 9 h [10]: 1630 ng/mL
